Patent publication US7348421B1, “Methods for production of p-hydroxybenzoate in bacteria” (North Carolina State University, priority 2000, dated 2008)
“And” between values parts separate entries of the source, which are not always exact repeats. Equal values may be shown once. Read-outs that look alike come from different tables or passages of the source.

Columns and labels:
[1] = system: Pseudomonas putida DOT-T1E; test: Halo-inhibition test with antibiotic disks on minimal medium; assay type: cell-based; settings: wild-type; Halo-inhibition test
[2] = system: P. mendocina krc16DkpobA51a (#303); assay type: cell-based, Pseudomonas mendocina; settings: gradient 0-100 mg/L, repeated lines
[3] = system: P. mendocina KR1-A (#362); assay type: cell-based, Pseudomonas mendocina; settings: gradient 0-100 mg/L, repeated lines
[4] = system: Acinetobacter calcoaceticus; assay type: cell-based; settings: gradient of PHBA between 0 and 30 g/L
[5] = system: P. putida KT2440 with pPAT7; settings: gradient 0-20 g/L
[6] = system: Pseudomonas putida DOT-T1E; test: Growth in M9 liquid medium with glucose and p-hydroxybenzoate; assay type: cell-based; settings: M9 with glucose
[7] = system: Bacillus subtilis; assay type: cell-based; settings: gradient of PHBA between 0 and 30 g/L
[8] = system: P. mendocina KR1 (#363); test: Growth on pHBA gradient plates; settings: gradient 0 to 40 g/L, 24 h, 30° C.
[9] = system: Ralstonia solanacearum; assay type: cell-based; settings: gradient of PHBA between 0 and 30 g/L
[10] = system: P. putida KT2440 with pPAT8; settings: gradient 0-20 g/L
[11] = system: Pseudomonas fluorescens; assay type: cell-based; settings: gradient of PHBA between 0 and 30 g/L
[12] = system: E. coli K12 (#327); settings: gradient 0 to 40 g/L, 24 h, 30° C.
[13] = system: Pseudomonas aeruginosa; assay type: cell-based; settings: gradient of PHBA between 0 and 30 g/L
[14] = system: P. mendocina KR1 with pPAT7; settings: gradient 0-20 g/L
[15] = system: PhoA5 mutant; test: Survival after sudden pHBA shock with or without Fe-citrate; assay type: cell-based, Pseudomonas putida
[16] = system: Pseudomonas stutzeri; assay type: cell-based; settings: gradient of PHBA between 0 and 30 g/L
[17] = system: P. putida KT2440; settings: P. putida KT2440, plasmid none; gradient 0-20 g/L
[18] = system: Pseudomonas putida DOT-T1E; test: pHBA shock after preculture on pHBA, 1 or 10 mM MgSO4; assay type: cell-based
[19] = system: Pseudomonas putida R1; assay type: cell-based; settings: gradient of PHBA between 0 and 30 g/L
[20] = system: Pseudomonas vesicularis; assay type: cell-based; settings: gradient of PHBA between 0 and 30 g/L
[21] = system: Pseudomonas putida EEZ10; assay type: cell-based; settings: gradient of PHBA between 0 and 30 g/L
[22] = system: P. mendocina KR1 with pPAT8; settings: gradient 0-20 g/L
[23] = system: P. putida PhoA5 with pPAT8; settings: gradient 0-20 g/L
[24] = system: Enriched cultures; test: Selection on TSA plates with toluene and pHBA; assay type: cell-based; settings: dodecane:toluene overlay (100 ppm toluene)
Procedure: Five transfers were made on glass plates with trypticase soy agar (TSA-Difco) medium with 10 g/L glucose. Toluene (˜0.5 mL) was added to the bottom of the inverted plates, saturating the medium and the gas phase. […]. This mixture was calculated to give 100 ppm toluene concentration in the liquid phase. […]

[25] = system: P. mendocina krc16DkpobA51a (#303); settings: gradient 0 to 40 g/L, 24 h, 30° C.
[26] = system: strain F (DGL#325); test: Selection on TSA plates with toluene and pHBA; assay type: cell-based, Pseudomonas mendocina; settings: 100 ppm toluene, after few day of incubation
Procedure: Three more transfers were made in a TSA medium plus 10 g/L glucose, 100 mg/L cycloheximide, 5 g/L agar (Difco), and increasing concentrations of pHBA. The pH was adjusted to 7.2. Toluene to 100 ppm was added to the bottom of the glass desicator as a mixture of hexadecane:toluene (262 mL:26.5 mL). This mixture was expected to give 100 ppm toluene in the liquid phase in equilibrium. […]. Under microscope strain C grew in long chains.

[27] = system: P. mendocina KR1; settings: P. mendocina KR1, plasmid none, gradient 0-20 g/L
[28] = system: Escherichia coli ET8000; assay type: cell-based; settings: gradient of PHBA between 0 and 30 g/L
[29] = system: Alcaligenes eutrophus; assay type: cell-based; settings: gradient of PHBA between 0 and 30 g/L
[30] = system: strain C; test: Selection on TSA plates with toluene and pHBA; assay type: cell-based; settings: 100 ppm toluene
Procedure: Three more transfers were made in a TSA medium plus 10 g/L glucose, 100 mg/L cycloheximide, 5 g/L agar (Difco), and increasing concentrations of pHBA. The pH was adjusted to 7.2. Toluene to 100 ppm was added to the bottom of the glass desicator as a mixture of hexadecane:toluene (262 mL:26.5 mL). This mixture was expected to give 100 ppm toluene in the liquid phase in equilibrium. Selected strains C and F (DGL#325) grew on 40 g/L pHBA after few day of incubation, strain C grew at 50 g/l pHBA after 10 days of incubation. Under microscope strain C grew in long chains.

Which results are given for `O=C(N[C@H](CO)[C@H](O)c1ccc([N+](=O)[O-])cc1)C(Cl)Cl` [CAM, chloramphenicol]?
tolerance/sensitivity to antibiotic [1]: tolerant; Growth (distance in mm) on CAM gradient [2]: 10 mm and 15 mm; Growth (distance in mm) on CAM gradient [3]: 15 mm and 10 mm

How did the “pHBA tolerance or sensitivity” value [4] turn out when `O=C(O)c1ccc(O)cc1` [pHBA, p-hydroxybenzoic acid] was run?
Its value is “tolerant”.

What about the “pHBA Tolerance” value [5] of the same molecule?
Its value is 17 g/L.

And the “growth (CFU per mL)” value ([6]; 6 g/L of p-hydroxybenzoate)?
The value was “growth was exponential”.

And the “growth (CFU per mL)” value ([6]; 12 or higher g/L p-hydroxybenzoate)?
Its value is “number of viable cells decreased”.

And the “pHBA tolerance or sensitivity” value [7]?
The value was “sensitive”.

And the “growth on pHBA gradient plates” value [8]?
Its value is 10 mm and 20 mm.

What about the “pHBA tolerance or sensitivity” value [9] of the same molecule?
Its value is “sensitive”.

What about the “pHBA Tolerance” value [10] of the same molecule?
Its value is 18.5 g/L.

And the “pHBA tolerance or sensitivity” value [11]?
The value was “sensitive”.

And the “growth on pHBA gradient plates” value [12]?
The value was 35 mm and 20 mm.

And the “pHBA tolerance or sensitivity” value [13]?
Its value is “sensitive”.

And the “pHBA Tolerance” value [14]?
Its value is roughly 10 g/L.

What about the “survival after pHBA shock” value ([15]; 12 g/L PHBA, absence of iron) of the same molecule?
Its value is “about 0.0001%”.

What about the “survival after pHBA shock” value ([15]; 12 g/L PHBA, with extra iron (Fe-citrate)) of the same molecule?
Its value is roughly 100%.

And the “survival after pHBA shock” value ([15]; 18 g/L, absence of iron)?
Its value is “no cells survived”.

And the “survival after pHBA shock” value ([15]; 18 g/L, supplemented with iron)?
The value was 0.001%.

And the “pHBA tolerance or sensitivity” value [16]?
The value was “sensitive”.

What about the “pHBA Tolerance” value [17] of the same molecule?
The value was 17 g/L.

And the “cell viability after pHBA shock” value ([18]; cells not pregrown on pHBA, 30 and 36 g/L, 24 h after the shock)?
The value was “no cells were recovered”.

What about the “cell viability after pHBA shock” value ([18]; cells not pregrown on pHBA, >18 g/L, 1 or 10 mM MgSO4) of the same molecule?
The value was “marked decrease in cell viability”.

And the “cell viability after pHBA shock” value ([18]; preinduced cells, 30 and 36 g/L pHBA, 1 mM MgSO4, 24 h after the shock)?
Its value is “cells were not recoverable”.

And the “decrease in number of viable cells after pHBA shock” value ([18]; preinduced cells, 30 g/L, 10 mM MgSO4, growth resumed afterwards)?
Its value is ~6 orders of magnitude.

And the “cell viability after pHBA shock” value ([18]; preinduced cells, up to 0.18 g/L PHBA, regardless of MgSO4)?
Its value is “no significant effect on cell viability”.

And the “pHBA tolerance or sensitivity” value [19]?
Its value is “tolerant”.

What about the “pHBA tolerance or sensitivity” value [20] of the same molecule?
Its value is “sensitive”.

And the “pHBA tolerance or sensitivity” value [21]?
The value was “tolerant”.

What about the “pHBA Tolerance” value [22] of the same molecule?
The value was 10.2 g/L.

What about the “pHBA Tolerance” value ([22]; listed as PHBA) of the same molecule?
Its value is roughly 10 g/L.

What about the “pHBA Tolerance” value [23] of the same molecule?
Its value is 17 g/L.

What about the “pHBA concentration at which cultures grew” value [24] of the same molecule?
The value was 20 g/L.

And the “growth on pHBA gradient plates” value [25]?
Its value is 10 mm and 15 mm.

What about the “pHBA concentration at which strain grew” value [26] of the same molecule?
The value was 40 g/L.

And the “pHBA Tolerance” value [27]?
The value was 8.5 g/L.

And the “pHBA Tolerance” value ([27]; listed as PHBA)?
Its value is “about 8.5 g/L”.

And the “pHBA tolerance or sensitivity” value [28]?
The value was “tolerant”.

And the “pHBA tolerance or sensitivity” value [29]?
The value was “sensitive”.

And the “pHBA concentration at which strain grew” value ([30]; after 10 days of incubation)?
Its value is 50 g/l.

What about the “pHBA concentration at which strain grew” value ([30]; after few day of incubation) of the same molecule?
Its value is 40 g/L.
